Assay results as given in ChEMBL document CHEMBL1201862, “PubChem BioAssay data set” (2004).
Values belong to the compound of their own block, whether it stands above or below them. Active and inactive are the calls of the source.

Tests used:
Type in all cases: functional
Orexin receptor type 2 [1] = molecular target: T1, Orexin receptor type 2 (Homo sapiens, UniProt O43614); experiment: Counterscreen assay for antagonists of the orexin 1 receptor (OX1R; HCRTR1): Homogeneous Time Resolved Fluorescence (HTRF)-based cell-based dose response assay for antagonists of the orexin 2 receptor (OX2R; HCRTR2), run by assay provider.
T1 sequence (O43614 whole entry): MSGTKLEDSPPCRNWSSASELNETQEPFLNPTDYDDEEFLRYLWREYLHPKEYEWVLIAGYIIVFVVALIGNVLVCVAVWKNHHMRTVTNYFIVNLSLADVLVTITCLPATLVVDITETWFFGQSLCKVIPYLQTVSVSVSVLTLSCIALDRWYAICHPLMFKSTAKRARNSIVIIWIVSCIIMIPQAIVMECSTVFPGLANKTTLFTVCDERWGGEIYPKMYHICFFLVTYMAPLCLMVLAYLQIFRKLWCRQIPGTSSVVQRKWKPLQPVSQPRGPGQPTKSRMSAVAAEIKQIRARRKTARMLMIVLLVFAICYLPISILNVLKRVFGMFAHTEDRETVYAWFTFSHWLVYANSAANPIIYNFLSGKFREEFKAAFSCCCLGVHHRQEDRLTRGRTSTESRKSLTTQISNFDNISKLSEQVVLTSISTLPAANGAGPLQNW

[2] = molecular target: T2, Orexin/Hypocretin receptor type 1 (Homo sapiens, UniProt O43613); experiment: Homogeneous Time Resolved Fluorescence (HTRF)-based cell-based high throughput dose response assay for antagonists of the orexin 1 receptor (OX1R; HCRTR1). [Related pubchem assays (depositor defined):AID434989, AID435008, AID463079, AID485270, AID492963, AID492964, AID492965, AID493232, AID504717, AID504718]
T2 sequence (O43613 whole entry): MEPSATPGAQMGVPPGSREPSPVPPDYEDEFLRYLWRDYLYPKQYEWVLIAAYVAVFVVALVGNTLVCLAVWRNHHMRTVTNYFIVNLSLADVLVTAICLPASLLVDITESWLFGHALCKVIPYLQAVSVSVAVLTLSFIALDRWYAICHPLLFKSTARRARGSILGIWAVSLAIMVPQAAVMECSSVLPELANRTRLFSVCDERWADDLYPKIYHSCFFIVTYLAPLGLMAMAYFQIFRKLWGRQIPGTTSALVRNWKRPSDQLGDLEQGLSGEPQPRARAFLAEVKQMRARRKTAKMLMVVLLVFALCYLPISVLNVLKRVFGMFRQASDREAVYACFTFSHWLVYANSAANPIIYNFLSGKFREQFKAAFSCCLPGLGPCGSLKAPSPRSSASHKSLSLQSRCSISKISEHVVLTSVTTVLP

Orexin receptor type 2 [3] = molecular target: T1, Orexin receptor type 2; experiment: Counterscreen assay for antagonists of the orexin 1 receptor (OX1R; HCRTR1): Fluorescence-based cell-based dose response assay for antagonists of the orexin 2 receptor (OX2R; HCRTR2), run by assay provider.
CHO-K1 = experiment: (§1) Counterscreen for antagonists of the orexin 1 receptor (OX1R; HCRTR1): Homogeneous time resolved fluorescence (HTRF)-based cell-based dose response assay to identify antagonists of the parental CHO-K1 cell line. [Related pubchem assays (depositor defined):AID434989, AID435008, AID463079, AID485270, AID492963, AID492964, AID492965, AID493232, AID504699, AID504701]; conditions: Cricetulus griseus
[4] = molecular target: T2, Orexin/Hypocretin receptor type 1; experiment: Fluorescence-based cell-based high throughput dose response assay for antagonists of the orexin 1 receptor (OX1R; HCRTR1). [Related pubchem assays (depositor defined):AID434989, AID435008, AID463079, AID485270, AID492963, AID492964, AID492965, AID493232, AID504717, AID504718]
[5] = molecular target: T3, Sentrin-specific protease 8 (Homo sapiens, UniProt Q96LD8)
T3 sequence (Q96LD8 whole entry): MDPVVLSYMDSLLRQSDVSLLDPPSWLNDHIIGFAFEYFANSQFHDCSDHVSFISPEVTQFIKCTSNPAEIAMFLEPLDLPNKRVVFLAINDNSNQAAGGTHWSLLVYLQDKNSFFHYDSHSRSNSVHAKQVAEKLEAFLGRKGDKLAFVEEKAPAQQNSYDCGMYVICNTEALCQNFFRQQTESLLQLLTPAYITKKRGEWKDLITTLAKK

[6] = molecular target: T3, Sentrin-specific protease 8; remark: listed apart in the source
[7] = as §1, with “Fluorescence-based” for “Homogeneous time resolved fluorescence (HTRF)-based”, “cell-based high throughput” for “cell-based”, “CHO” for “CHO-K1”
[8] = molecular target: Dual specificity mitogen-activated protein kinase kinase 2 (Homo sapiens, UniProt P36507); experiment: Navigating the Kinome. Panel member name: MAP2K2
[9] = molecular target: Mitogen-activated protein kinase kinase kinase kinase 2 (Homo sapiens, UniProt Q12851);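 note: measured as one member of a kinome-wide kinase panel, with MAP4K2 as the panel entry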
[10] = molecular target: Cyclin-dependent kinase 8 (Homo sapiens, UniProt P49336); experiment: Navigating the Kinome. Panel member name: CDK8
[11] = molecular target: Serine/threonine-protein kinase pim-1 (Homo sapiens, UniProt P11309)
[12] = molecular target: Hepatocyte growth factor receptor (Homo sapiens, UniProt P08581);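 note: kinase panel profiling across the kinome, with MET as the panel member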
Sequence of Hepatocyte growth factor receptor (P08581 whole entry, the tested form may be a part): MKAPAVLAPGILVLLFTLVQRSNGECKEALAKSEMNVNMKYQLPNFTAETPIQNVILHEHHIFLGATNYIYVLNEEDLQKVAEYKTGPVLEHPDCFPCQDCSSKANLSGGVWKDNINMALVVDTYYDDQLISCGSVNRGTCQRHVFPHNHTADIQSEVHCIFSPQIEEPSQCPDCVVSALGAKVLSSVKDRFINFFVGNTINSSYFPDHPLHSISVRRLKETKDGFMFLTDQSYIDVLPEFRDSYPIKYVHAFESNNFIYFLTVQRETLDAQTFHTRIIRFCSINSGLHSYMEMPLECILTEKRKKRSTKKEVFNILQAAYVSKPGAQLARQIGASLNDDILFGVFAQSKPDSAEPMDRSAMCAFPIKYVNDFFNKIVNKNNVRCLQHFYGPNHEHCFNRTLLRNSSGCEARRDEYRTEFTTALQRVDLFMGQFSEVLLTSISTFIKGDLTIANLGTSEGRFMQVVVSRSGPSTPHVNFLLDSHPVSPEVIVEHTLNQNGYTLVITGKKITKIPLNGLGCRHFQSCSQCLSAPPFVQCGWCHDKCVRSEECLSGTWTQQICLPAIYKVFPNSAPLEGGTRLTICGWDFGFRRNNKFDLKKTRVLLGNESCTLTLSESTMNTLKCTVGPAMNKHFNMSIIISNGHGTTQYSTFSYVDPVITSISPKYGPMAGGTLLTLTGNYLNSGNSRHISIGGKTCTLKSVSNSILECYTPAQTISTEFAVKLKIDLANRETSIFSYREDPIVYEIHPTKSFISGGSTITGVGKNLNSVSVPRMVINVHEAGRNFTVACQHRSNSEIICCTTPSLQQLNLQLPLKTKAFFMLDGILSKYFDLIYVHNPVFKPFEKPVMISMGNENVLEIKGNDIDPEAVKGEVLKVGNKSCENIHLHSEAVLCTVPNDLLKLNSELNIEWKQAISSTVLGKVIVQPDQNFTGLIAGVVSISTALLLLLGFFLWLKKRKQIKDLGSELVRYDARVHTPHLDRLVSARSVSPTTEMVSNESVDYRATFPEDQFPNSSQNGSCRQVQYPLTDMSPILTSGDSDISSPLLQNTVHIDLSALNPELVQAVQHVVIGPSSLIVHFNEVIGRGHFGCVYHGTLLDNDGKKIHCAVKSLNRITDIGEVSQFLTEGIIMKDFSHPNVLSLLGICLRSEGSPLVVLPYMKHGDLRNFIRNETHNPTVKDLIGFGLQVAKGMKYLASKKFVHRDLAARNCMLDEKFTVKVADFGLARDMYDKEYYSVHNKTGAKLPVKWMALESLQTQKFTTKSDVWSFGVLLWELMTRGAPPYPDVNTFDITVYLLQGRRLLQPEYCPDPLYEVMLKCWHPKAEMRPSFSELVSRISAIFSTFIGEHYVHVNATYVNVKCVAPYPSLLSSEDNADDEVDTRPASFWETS

LIM domain kinase 1 = LIM domain kinase 1 (Homo sapiens, UniProt P53667); experiment: Navigating the Kinome. Panel member name: LIMK1
[13] = molecular target: Dual specificity tyrosine-phosphorylation-regulated kinase 1A (Homo sapiens, UniProt Q13627);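 note: measured against DYRK1A as one member of a broad kinome profiling panel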
[14] = molecular target: Dual specificity protein kinase CLK4 (Homo sapiens, UniProt Q9HAZ1)
[15] = molecular target: Serine/threonine-protein kinase Chk1 (Homo sapiens, UniProt O14757);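 note: measured as one member of a kinome-wide kinase profiling panel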
[16] = molecular target: Cyclin-dependent kinase 1 (Homo sapiens, UniProt P06493);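 note: Kinome-wide panel profiling, with the target listed as panel member CDC2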
[17] = molecular target: Interleukin-1 receptor-associated kinase 4 (Homo sapiens, UniProt Q9NWZ3)
[18] = molecular target: Melanin-concentrating hormone receptor 1 (Homo sapiens, UniProt Q99705); experiment: Late-stage fluorescence-based counterscreen for antagonists of the G-protein coupled receptor 7 (GPR7): cell-based dose response assay to identify antagonists of the melanin-concentrating hormone receptor 1 (MCHR1) Set 5.
Sequence of Melanin-concentrating hormone receptor 1 (Q99705 whole entry): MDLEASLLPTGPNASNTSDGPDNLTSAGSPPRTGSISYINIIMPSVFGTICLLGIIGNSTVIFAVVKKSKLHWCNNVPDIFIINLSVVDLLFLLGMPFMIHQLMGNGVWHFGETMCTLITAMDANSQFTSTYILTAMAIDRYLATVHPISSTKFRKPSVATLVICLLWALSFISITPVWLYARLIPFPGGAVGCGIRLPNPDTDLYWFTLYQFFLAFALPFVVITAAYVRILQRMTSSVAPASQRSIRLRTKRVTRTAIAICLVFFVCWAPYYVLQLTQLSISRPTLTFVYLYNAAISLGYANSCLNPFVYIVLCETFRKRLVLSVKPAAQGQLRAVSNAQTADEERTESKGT

[19] = molecular target: Neuropeptides B/W receptor type 1 (Homo sapiens, UniProt P48145); experiment: GPR7 antagonist potency, late-stage follow-up, cell-based, fluorescence, dose response, set 5 (AID 588566)
Wee1-like protein kinase = Wee1-like protein kinase (Homo sapiens, UniProt P30291); experiment: Navigating the Kinome. Panel member name: WEE1
[20] = molecular target: ALK tyrosine kinase receptor (Homo sapiens, UniProt Q9UM73);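 note: ALK tested as one member of a kinase panel screen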
[21] = molecular target: Cyclin-dependent kinase 19 (Homo sapiens, UniProt Q9BWU1); experiment: Navigating the Kinome. Panel member name: CDC2L6
Aurora kinase B = Aurora kinase B (Homo sapiens, UniProt Q96GD4)
Aurora kinase A = Aurora kinase A (Homo sapiens, UniProt O14965);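 note: value from the Navigating the Kinome kinase panel profiling, panel entry STK6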
[22] = molecular target: Benomyl/methotrexate resistance protein (Candida albicans, UniProt P28873); experiment: CaMdr1 efflux pump inhibitor potency, dose response, singleplex, Cherry Pick1 hits (AID 588608)
Sequence of Benomyl/methotrexate resistance protein (P28873 whole entry): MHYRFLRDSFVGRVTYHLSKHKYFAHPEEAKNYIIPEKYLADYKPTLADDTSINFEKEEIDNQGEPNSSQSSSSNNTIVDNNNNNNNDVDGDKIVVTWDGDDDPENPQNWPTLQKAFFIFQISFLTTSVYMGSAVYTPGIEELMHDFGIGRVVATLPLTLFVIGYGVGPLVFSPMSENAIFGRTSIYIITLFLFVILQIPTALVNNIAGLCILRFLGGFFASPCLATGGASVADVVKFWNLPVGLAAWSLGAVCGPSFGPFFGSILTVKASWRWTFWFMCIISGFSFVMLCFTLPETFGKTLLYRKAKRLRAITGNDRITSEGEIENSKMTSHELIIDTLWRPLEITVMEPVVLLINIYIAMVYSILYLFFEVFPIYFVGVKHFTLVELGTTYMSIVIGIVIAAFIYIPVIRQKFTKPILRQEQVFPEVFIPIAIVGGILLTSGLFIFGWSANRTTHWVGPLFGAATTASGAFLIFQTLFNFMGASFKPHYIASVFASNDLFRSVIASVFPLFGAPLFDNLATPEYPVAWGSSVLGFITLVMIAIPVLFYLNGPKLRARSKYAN

[23] = molecular target: Multidrug resistance protein CDR2 (Candida albicans (strain SC5314 / ATCC MYA-2876) (Yeast), UniProt P78595); experiment: CaCDR2 efflux pump inhibitors in yeast, dose response, S. cerevisiae AD1-8u, singleplex, Cherry Pick1 hits (AID 588604)
Sequence of Multidrug resistance protein CDR2 (P78595 whole entry): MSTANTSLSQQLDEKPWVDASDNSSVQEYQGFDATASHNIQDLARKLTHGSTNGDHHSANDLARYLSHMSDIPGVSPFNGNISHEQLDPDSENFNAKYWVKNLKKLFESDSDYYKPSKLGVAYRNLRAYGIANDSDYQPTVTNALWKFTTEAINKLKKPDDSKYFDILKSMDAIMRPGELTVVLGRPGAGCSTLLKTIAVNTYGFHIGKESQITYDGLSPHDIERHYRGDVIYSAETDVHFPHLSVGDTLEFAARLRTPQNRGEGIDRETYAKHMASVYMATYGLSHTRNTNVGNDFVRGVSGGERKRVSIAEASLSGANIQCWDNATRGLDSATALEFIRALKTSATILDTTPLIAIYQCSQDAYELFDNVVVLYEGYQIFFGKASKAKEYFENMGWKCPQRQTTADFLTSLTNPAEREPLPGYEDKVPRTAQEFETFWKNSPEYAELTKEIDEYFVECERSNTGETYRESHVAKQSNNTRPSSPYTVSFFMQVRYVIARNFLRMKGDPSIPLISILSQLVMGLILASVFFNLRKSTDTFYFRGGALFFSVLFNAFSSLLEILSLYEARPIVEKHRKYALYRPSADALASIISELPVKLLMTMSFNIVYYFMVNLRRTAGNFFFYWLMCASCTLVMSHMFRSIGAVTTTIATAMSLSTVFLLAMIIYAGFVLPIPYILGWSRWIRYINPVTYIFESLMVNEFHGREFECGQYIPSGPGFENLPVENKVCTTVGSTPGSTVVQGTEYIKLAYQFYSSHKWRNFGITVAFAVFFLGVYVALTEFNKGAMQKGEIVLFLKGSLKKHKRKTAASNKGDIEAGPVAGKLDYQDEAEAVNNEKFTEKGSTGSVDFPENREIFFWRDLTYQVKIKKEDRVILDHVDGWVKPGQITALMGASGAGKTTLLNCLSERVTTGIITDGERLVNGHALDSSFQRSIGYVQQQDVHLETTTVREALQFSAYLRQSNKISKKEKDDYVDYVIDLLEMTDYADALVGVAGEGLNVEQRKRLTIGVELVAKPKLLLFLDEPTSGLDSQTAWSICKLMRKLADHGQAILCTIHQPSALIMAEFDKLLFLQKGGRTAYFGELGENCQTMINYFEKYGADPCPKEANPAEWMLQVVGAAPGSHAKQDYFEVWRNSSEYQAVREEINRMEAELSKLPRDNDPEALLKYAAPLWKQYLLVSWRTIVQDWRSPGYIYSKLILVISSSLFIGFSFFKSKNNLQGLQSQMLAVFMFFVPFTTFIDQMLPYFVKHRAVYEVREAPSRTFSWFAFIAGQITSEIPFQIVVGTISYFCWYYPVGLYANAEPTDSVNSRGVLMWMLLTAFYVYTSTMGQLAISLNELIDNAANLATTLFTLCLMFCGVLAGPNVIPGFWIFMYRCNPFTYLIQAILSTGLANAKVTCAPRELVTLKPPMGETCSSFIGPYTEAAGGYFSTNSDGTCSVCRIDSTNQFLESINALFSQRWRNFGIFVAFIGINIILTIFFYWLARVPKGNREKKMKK

[24] = molecular target: Mitogen-activated protein kinase 13 (Homo sapiens, UniProt O15264)
Sequence of Mitogen-activated protein kinase 13 (O15264 whole entry): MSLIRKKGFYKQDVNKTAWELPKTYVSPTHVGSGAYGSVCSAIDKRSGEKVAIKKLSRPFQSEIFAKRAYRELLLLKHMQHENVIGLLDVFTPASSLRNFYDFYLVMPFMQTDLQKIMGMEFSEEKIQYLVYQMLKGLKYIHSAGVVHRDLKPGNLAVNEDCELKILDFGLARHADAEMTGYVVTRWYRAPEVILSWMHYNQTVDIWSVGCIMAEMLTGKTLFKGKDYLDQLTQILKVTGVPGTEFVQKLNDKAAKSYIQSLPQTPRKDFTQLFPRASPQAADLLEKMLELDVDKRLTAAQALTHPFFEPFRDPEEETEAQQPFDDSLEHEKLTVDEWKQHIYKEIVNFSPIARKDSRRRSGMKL

Compound: CCOc1cc(C(=S)N2CCOCC2)cc(Br)c1OS(=O)(=O)c1ccccc1
IC50 (Orexin receptor type 2 [1]): > 50 µM (inactive)
IC50 [2]: 4.56 µM (active)
IC50 (Orexin receptor type 2 [3]): 6.2 µM (active)
IC50 (CHO-K1): > 66.2 µM (inactive)
IC50 [4]: 8.68 µM (active)
IC50 [5]: 8.96 µM (active)
IC50 [6]: 8.6 µM (active)
IC50 [7]: > 49.8 µM (inactive)

Compound: Oc1ccc(Cl)cc1C1=NNC(c2ccc3c(c2)OCCO3)C1 (centres undefined)
Ki [8]: 3.16 µM (active)
Ki [9]: 2.51 µM (active)
Ki [10]: 3.16 µM (active)
Ki [11]: 2 µM (active)
Ki [12]: 1.26 µM (active)

Compound: CS(=O)(=O)Nc1ccccc1-c1ccc2c(c1)Nc1ccccc1NC2=O
Ki [16]: 7.94 µM (active)
Ki [17]: 3.98 µM (active)

Compound: CCN1CCN(c2ccc(Nc3nccc(Nc4ccc5[nH]ncc5c4)n3)cc2)CC1
Ki (Wee1-like protein kinase): 0.158 µM (active)
Ki [20]: 1 µM (active)

Compound: CCN(CC)c1ccc(/C=C/c2cc(-c3ccccc3)c3ccccc3n2)cc1
EC50 [22]: 3.32 µM (active)
EC50 [23]: 16.1 µM (active)

The remaining lines, values ahead:

Ki (LIM domain kinase 1): 50.1 µM (active)
Ki [13]: 63.1 µM (active)
Ki [14]: 39.8 µM (active)
Ki [15]: 39.8 µM (active)
Compound: O=C(O)c1cnc2sccn2c1=O

IC50 [18]: 14.8 µM (inactive)
IC50 [19]: 1.88 µM (active)
Compound: CCOc1ccc(Oc2c(Cl)c(C)nn(Cc3cccc4ccccc34)c2=O)cc1

Ki [21]: 2 µM (active)
Ki (Aurora kinase B): 0.01 µM (active)
Ki (Aurora kinase A): 0.126 µM (active)
Compound: Cc1ccc(F)c(NC(=O)Nc2ccc(-c3cc(CO)c(F)c4[nH]nc(N)c34)cc2)c1

Ki [24]: > 7.94 µM (inactive)
Compound: Cc1cccc(NC(=O)Nc2ccc(-c3ccc4nccnc4c3N)cc2)c1
